Source: patent US6376510B1, “Neuromuscular relaxants” (Newlaxant LLC, priority 1997, dated 2002)
Like-named read-outs stand apart in the source and are kept apart here.

Columns and labels:
[1] = tested on: anesthetized rats (evoked responses of anterior tibial muscle); experiment: In vivo neuromuscular block and cardiovascular side effects, anesthetized rat (Example 8, Table 3); conditions: for RI (recovery index): spontaneous recovery, 25-75% neuromuscular response; for Onset: time to 80-85% neuromuscular block
Source text: The neuromuscular blocking activity and other effects (e.g. cardiovascular side effects) of selected agents were investigated on several different experimental animals. Justification for this approach lies in the commonly known fact that the pharmacodynamic and pharmacokinetic properties of these agents are markedly variable from species to species. Therefore, the most important aspects of the projected therapeutic utility of these agents, e.g., neuromuscular blocking potency, onset and duration of action, and side effects cannot be ascertained in “in vitro” preparations or by using only one species of animals.
a) Adult, male albino rats were anesthetized with pentobarbital injected intraperitoneally. The trachea was cannulated for artificial respiration via a small animal respirator. The carotid artery was cannulated for recording blood pressure via a transducer and heart rate by a cardiotachograph on a polygraph. One external jugular vein was cannulated for i.v. drug administration. Neuromuscular function was monitored by electromyography, recording evoked responses from the anterior tibial muscle as a result of supramaximal nerve stimuli consisting of single or “train-of-four” rectangular pulses of 0.1-0.2 msec duration every 10-12 seconds, delivered to the sciatic or common peroneal nerve by a laboratory nerve stimulator. Another mode of stimulation included repeated single stimuli delivered at 0.1 Hz or 1 Hz. […] The agents were dissolved in physiologic saline and injected intravenously at appropriate time intervals. The intensity, onset, and duration of neuromuscular block and its type were determined with each agent. Through administering several doses, the doses corresponding to 50%, 80% and 90% neuromuscular block were determined. All agents were compared with selected standard neuromuscular blocking compounds, e.g. succinylcholine, pancuronium, mivacurium, or rocuronium.
Onset=time in minutes to 80-85% neuromuscular block.
RI=recovery index, minutes, spontaneous recovery, 25-75% neuromuscular response.
VB=vagal block, %, at 80-85% neuromuscular blocking dose.
ΔHR=change in heart rate, %, at 80-85% neuromuscular blocking dose.
ΔBP=change in arterial blood pressure, %, at 80-85% neuromuscular blocking dose.

[2] = tested on: anesthetized juvenile pigs; experiment: animal or person; assay type: in vivo; conditions: pig; for ED50: Sus scrofa, intravenous dose causing 50% neuromuscular block, read-out: ED50; for VB (vagal block) / ΔBP (change in arterial blood pressure) / ΔH (change in heart rate): at 80-85% neuromuscular blocking dose; for RI (recovery index): spontaneous recovery, 25-75% neuromuscular response; for Onset: time to 80-85% neuromuscular block
Source text: Both electromyographic and mechanomyographic responses can be quantified.
The techniques described under a) and b) were employed in other species as needed with the modification that juvenile pigs were initially anesthetized with inhalation of halothane (Table 5) and monkeys were initially sedated with intramuscular ketamine injections prior to inducing and maintaining general anesthesia using pentobarbital and propofol administered intravenously (Table 6).

rabbits = experiment: In vivo neuromuscular block and cardiovascular side effects, rabbit (Example 8, Table 7); conditions: for ED50: intravenous dose causing 50% neuromuscular block; for RI (recovery index): spontaneous recovery, 25-75% neuromuscular response; for Onset: time to 80-85% neuromuscular block
[3] = rat, at 80-85% neuromuscular blocking dose
[4] = Oryctolagus cuniculus, read-out: ED50
[5] = at 80-85% neuromuscular blocking dose
[6] = rat, intravenous dose causing 50% neuromuscular block

| Structure (SMILES) | ED50 ([1]; Rattus norvegicus, iv) [mg/kg] | VB (vagal block) [1, 3] [%] | ΔBP (change in arterial blood pressure) [1, 3] [%] | ΔH (change in heart rate) [1, 3] [%] | RI (recovery index) ([1]; rat) [min] | Onset ([1]; rat) [min] | ED50 [2] [mg/kg] | VB (vagal block) [2] [%] | ΔBP (change in arterial blood pressure) [2] [%] | ΔH (change in heart rate) [2] [%] | RI (recovery index) [2] [min] | Onset [2] [min] | ED50 (rabbits; [4]) [mg/kg] | ΔBP (change in arterial blood pressure) (rabbits; [5]) [%] | ΔH (change in heart rate) (rabbits; [5]) [%] | RI (recovery index) (rabbits) [min] | Onset (rabbits) [min] | ED50 [1, 6] [mg/kg] | ΔBP (change in arterial blood pressure) (rabbits; in vivo) [%] | ΔH (change in heart rate) (rabbits; in vivo) [%] | also measured |
| --- | --- | --- | --- | --- | --- | --- | --- | --- | --- | --- | --- | --- | --- | --- | --- | --- | --- | --- | --- | --- | --- |
| CCC(=O)Oc1ccc(C[N+]2(C)[C@@H]3CC[C@H]2C[C@@H](OC(=O)CCCCC(=O)O[C@H]2C[C@H]4CC[C@@H](C2)[N+]4(C)Cc2ccc(OC(=O)CC)c(OC(=O)CC)c2)C3)cc1OC(=O)CC.[Br-].[Br-] (stereo partly drawn) [bis[N-(3,4-dipropionyloxybenzyl)tropanium-3α-yl]adipate dibromide] | 0.217 | 18 | 0 | 0 | 0.4 | 0.6 | 0.3 | 65 | 0 | 0 | 0.75 | 0.65 | 0.075 | 0 | 0 | 0.65 | 0.9 |  |  |  |  |
| COc1cc(C[N+]2(C)[C@@H]3CC[C@H]2C[C@@H](OC(=O)CCCCCCCCCC(=O)O[C@H]2C[C@H]4CC[C@@H](C2)[N+]4(C)Cc2cc(OC)c(OC(C)=O)c(OC)c2)C3)cc(OC)c1OC(C)=O.[Br-].[Br-] (stereo partly drawn) [bis[N-(4-acetoxy-3,5-dimethoxybenzyl)tropanium-3α-yl]1,9-nonanedicarboxylate dibromide] | 0.5 | 99 | 0 | 0 | 0.5 | 0.4 | 0.6 | 90 | 0 | 0 | 1.2 | 0.5 | 0.5 | 0 | 0 | 0.35 | 0.35 |  |  |  |  |
| CCC(=O)Oc1c(OC)cc(C[N+]2(C)[C@@H]3CC[C@H]2C[C@@H](OC(=O)C2CCCC(C(=O)O[C@H]4C[C@H]5CC[C@@H](C4)[N+]5(C)Cc4cc(OC)c(OC(=O)CC)c(OC)c4)C2)C3)cc1OC.[Br-].[Br-] (stereo partly drawn) [bis[N-(3,5-dimethoxy-4-propionyloxybenzyl)tropanium-3α-yl]cyclohexane-1,3-dicarboxylate dibromide] | 0.27 | 0 | 0 | 0 | 0.45 | 0.55 | 0.25 | 30 | 0 | 0 | 1.3 | 0.7 | 0.4 | 0 | 0 | 0.4 | 0.45 |  |  |  |  |
| COc1cc(C[N+]23CCC(CC2)C(OC(=O)[C@@H]2[C@@H](C(=O)OC4C[N+]5(Cc6ccc(OC(C)=O)c(OC)c6)CCC4CC5)[C@H]4C=C[C@@H]2C4)C3)ccc1OC(C)=O.[Br-].[Br-] (relative stereo) [bis[N-(4-acetoxy-3-methoxybenzyl)quinuclidinium-3-yl]trans-3,6-endomethylene-1,2,3,6-tetrahydrophthalate dibromide] |  |  |  |  | 3 | 1.8 |  |  |  |  |  |  |  |  |  | 4.5 | 2.8 | 2 | 0 | 0 | VB (vagal block) ([1]; rat, in vivo): 70%; ΔBP (change in arterial blood pressure) ([1]; rat, in vivo): −10%; ΔH (change in heart rate) ([1]; rat, in vivo): −5%; ED50 (rabbits): 0.115 mg/kg |
| COc1ccc(OC)c(C[N+]2(C)C3CCC2CC(OC(=O)C2C4C=CC(C4)C2C(=O)OC2CC4CCC(C2)[N+]4(C)Cc2cc(OC)ccc2OC)C3)c1.[Br-].[Br-] (stereo not drawn) [bis[N-(2,5-dimethoxybenzyl)tropanium-3α-yl]trans-3,6-endomethylene-1,2,3,6-tetrahydrophthalate dibromide] |  | 32 | 0 | 0 | 1.9 | 1 |  |  |  |  |  |  |  |  |  | 9 | 4 | 0.057 | 0 | 0 | ED50 (rabbits): 0.01 mg/kg |
